Legend:
prostate cancer = conditions: 5 mg of DES p.o. per day; cited from earlier work
[1] = buccal administration; cited from earlier work
prostate cancer cells = conditions: cited from earlier work
[2] = system: DU-145 prostate cancer cells; conditions: through inhibition of microtubule formation; cited from earlier work
[3] = system: DU-145 hormone-independent prostate cancer cell line; assay: in vitro direct cytotoxicity, Cell titer blue viability assay; format: cell-based; conditions: Homo sapiens; DU-145, 72 hrs incubation
Method: (§1) Cells were maintained in vitro in RPMI 1640 containing 10% (v/v) heat inactivated fetal bovine serum (FBS) and 2 mM L-glutamine (growth media) at 37° C. in 5% CO2 and humidified conditions. Cells were harvested, washed, re-suspended into growth medium and counted. The cells were re-suspended into assay media (RPMI 1640+1% (v/v) heat inactivated FBS+ and 2 mM L-glutamine) at 0.5×10^5 cells/ml for DU-145 cells and 1×10^5 for LNCaP cells, and plated into 96-well assay plates (Corning, black-wall plates) and 50 μl/well aliquots.
(§2) Plates were incubated O/N at 37° C. in 5% humidified CO2 prior to addition of the compounds. […] Fosfestrol was dissolved in sterile water at stock concentration of 60 mM. Stocks of all compounds were then serially diluted. Final concentrations to which cells were exposed were: 300, 150, 75, 37.5, 18.75, 9.4, 4.7, 2.3, 1.2 and 0.6 μM. Positive control was Taxotere. Taxotere was diluted in 100% DSMO to give a stock concentration of 1 mM. Stock was serial diluted and final concentration to which cells were exposed was: 1000, 333.3, 111.1, 37.0, 12.3, 4.1, 1.4, 0.5, and 0.2 nM.
(§3) Plates were incubated for 72 hrs at 37° C. in 5% humidified CO-2 after addition of the compounds. Viability of the cells was assessed with the Cell titer blue® (Promega) assay. […] Fluorescence was measured with a Flex II station plate reader. […]

[4] = system: LNCaP hormone-dependent prostate cancer cell line; assay: as above; format: cell-based; conditions: Homo sapiens, 72 hrs incubation
Method: as §1, §2, §3

Structure (SMILES): CC/C(=C(/CC)c1ccc(O)cc1)c1ccc(O)cc1 [DES, diethylstilbestrol]
- increase of non-cancer related deaths, mostly cardiovascular (prostate cancer): 36%
- DES plasma level, on average [1]: 11 ng DES/ml
- induction of thromboembolic activator (Fibrinogen) [1]: without inducing a thromboembolic activator (Fibrinogen)
- DES concentrations that do not influence prostate cancer cell growth (prostate cancer cells): up to 100 ng/ml
- minimal concentration of DES to induce some cytotoxic effects (prostate cancer cells): 1 µg/mL
- effect on DU-145 prostate cancer cells [2]: cytotoxic effects

Structure (SMILES): CC(=O)O[C@@]12CO[C@@H]1C[C@H](O)[C@@]1(C)C(=O)[C@H](O)C3=C(C)[C@@H](OC(=O)[C@H](O)[C@@H](NC(=O)OC(C)(C)C)c4ccccc4)C[C@@](O)([C@@H](OC(=O)c4ccccc4)[C@H]21)C3(C)C [Taxotere]
- IC50 [3]: 4 nM
- IC50 [4]: 2 nM
